Experiment in all cases: CDK inhibition assay (microfluidic LabChip, IC50 format)
The target of one assay is CDK1/B (Homo sapiens, UniProt P06493). The format is biochemical.
A further assay deals with T1, CDK2-CYCLINA (Homo sapiens, UniProt P24941).
T1 construct: purchased Millipore
The assay is classed as biochemical. The following applies: read-out: CDK2 CyclinA IC50.

Another assay concerns the target CDK7 CyclinH (Homo sapiens, UniProt P50613). The format is biochemical.
For another assay, the target named is T2, CDK9-CYCLINT1 (Homo sapiens, UniProt P50750).
T2 construct: purchased Carna
The format is biochemical. The following applies: read-out: CDK9 CyclinT1 IC50.

The next assay addresses CDK4-CYCLIND1 (Homo sapiens, UniProt P11802). The following applies: a second value in parentheses for some compounds.
The next assay has as its target T3, CDK6-CYCLIND3 (Homo sapiens, UniProt Q00534).
T3 construct: purchased Carna
The format is biochemical. The following applies: Table 4b, lower part; read-out: CDK6 CyclinD3 IC50.

Where [1] appears, read: CDK4 CyclinD1 IC50, Table 4b, lower part.

Experimental findings from patent publication US20230048132A1, “CYCLIN-DEPENDENT KINASE INHIBITORS” (SPV THERAPEUTICS INC., priority 2018, published 2023) are described below.

“And” between values parts separate entries of the source, which are not always exact repeats. Identical values can stand only once. Like-named read-outs stand apart in the source and are kept apart here. A value given as a limit tells only on which side of the number the result lay.

By IC50 is commonly meant the point on the concentration scale where inhibition reaches its midpoint.

T3 sequence (Q00534 whole entry): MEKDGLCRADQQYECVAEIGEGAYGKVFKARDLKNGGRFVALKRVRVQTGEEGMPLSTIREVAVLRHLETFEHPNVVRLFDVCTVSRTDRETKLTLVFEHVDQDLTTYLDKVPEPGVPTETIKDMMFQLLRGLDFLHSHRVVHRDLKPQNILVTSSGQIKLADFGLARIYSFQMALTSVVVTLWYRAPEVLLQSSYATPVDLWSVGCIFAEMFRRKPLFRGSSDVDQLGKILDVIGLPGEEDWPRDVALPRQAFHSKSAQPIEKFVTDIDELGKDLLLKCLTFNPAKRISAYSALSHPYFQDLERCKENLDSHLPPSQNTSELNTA
T3 sequence (P30281 whole entry partner): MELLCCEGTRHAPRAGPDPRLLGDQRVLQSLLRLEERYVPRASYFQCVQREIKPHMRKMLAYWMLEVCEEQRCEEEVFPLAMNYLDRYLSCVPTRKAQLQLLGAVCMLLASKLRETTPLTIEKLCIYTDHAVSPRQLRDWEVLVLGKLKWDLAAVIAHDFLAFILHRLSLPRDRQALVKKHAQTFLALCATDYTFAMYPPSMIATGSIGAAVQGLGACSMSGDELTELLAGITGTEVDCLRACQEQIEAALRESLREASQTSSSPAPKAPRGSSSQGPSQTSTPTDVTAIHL
CDK1/B, sequence (P06493 whole entry, species assumed): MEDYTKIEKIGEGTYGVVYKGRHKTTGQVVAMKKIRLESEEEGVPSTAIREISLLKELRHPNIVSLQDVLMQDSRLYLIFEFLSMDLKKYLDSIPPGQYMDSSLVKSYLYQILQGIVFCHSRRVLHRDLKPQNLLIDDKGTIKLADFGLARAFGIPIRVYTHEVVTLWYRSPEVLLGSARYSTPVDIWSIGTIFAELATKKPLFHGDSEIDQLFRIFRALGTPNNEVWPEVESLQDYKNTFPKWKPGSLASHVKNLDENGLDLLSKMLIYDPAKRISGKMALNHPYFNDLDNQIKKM
CDK1/B, sequence (P14635 whole entry partner, species assumed): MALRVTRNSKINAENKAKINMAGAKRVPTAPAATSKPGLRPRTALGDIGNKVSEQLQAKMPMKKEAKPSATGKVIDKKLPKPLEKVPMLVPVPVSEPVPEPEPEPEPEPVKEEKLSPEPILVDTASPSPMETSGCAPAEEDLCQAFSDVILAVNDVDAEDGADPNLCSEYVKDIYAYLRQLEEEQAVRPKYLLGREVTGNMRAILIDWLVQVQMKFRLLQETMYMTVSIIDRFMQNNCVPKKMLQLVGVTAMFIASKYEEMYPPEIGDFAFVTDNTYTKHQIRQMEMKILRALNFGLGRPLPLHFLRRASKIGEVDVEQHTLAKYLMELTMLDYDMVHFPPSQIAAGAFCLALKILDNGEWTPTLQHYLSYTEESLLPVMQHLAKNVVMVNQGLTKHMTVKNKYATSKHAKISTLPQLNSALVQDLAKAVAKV
CDK4-CYCLIND1, sequence (P11802 whole entry): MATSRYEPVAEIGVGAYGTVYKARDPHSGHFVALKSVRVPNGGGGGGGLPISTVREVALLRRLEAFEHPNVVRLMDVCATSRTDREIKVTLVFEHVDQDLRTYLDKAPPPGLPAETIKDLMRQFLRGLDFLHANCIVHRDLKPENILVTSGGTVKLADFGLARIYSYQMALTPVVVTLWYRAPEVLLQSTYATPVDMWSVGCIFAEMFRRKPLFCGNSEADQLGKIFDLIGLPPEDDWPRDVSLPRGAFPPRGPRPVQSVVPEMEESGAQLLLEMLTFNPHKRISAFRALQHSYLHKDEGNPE
CDK4-CYCLIND1, sequence (P24385 whole entry partner): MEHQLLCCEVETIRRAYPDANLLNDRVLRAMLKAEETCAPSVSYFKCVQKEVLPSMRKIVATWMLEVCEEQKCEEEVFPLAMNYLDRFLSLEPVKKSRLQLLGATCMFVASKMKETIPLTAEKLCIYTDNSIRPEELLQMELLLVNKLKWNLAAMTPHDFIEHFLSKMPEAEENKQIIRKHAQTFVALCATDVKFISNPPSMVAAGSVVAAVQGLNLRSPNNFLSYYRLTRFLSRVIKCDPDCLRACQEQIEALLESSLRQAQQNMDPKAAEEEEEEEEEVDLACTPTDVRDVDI
T2 sequence (P50750 whole entry): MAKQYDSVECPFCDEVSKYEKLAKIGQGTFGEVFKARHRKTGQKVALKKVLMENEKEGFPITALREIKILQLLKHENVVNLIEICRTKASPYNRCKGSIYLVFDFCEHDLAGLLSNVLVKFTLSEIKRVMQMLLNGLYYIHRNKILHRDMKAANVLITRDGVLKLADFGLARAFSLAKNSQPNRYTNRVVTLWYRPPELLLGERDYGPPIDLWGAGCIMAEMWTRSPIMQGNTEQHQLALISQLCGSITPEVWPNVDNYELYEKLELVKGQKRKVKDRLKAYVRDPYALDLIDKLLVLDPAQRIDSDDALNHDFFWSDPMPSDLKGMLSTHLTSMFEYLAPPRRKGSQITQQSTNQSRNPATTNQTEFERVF
T2 sequence (O60563 whole entry partner): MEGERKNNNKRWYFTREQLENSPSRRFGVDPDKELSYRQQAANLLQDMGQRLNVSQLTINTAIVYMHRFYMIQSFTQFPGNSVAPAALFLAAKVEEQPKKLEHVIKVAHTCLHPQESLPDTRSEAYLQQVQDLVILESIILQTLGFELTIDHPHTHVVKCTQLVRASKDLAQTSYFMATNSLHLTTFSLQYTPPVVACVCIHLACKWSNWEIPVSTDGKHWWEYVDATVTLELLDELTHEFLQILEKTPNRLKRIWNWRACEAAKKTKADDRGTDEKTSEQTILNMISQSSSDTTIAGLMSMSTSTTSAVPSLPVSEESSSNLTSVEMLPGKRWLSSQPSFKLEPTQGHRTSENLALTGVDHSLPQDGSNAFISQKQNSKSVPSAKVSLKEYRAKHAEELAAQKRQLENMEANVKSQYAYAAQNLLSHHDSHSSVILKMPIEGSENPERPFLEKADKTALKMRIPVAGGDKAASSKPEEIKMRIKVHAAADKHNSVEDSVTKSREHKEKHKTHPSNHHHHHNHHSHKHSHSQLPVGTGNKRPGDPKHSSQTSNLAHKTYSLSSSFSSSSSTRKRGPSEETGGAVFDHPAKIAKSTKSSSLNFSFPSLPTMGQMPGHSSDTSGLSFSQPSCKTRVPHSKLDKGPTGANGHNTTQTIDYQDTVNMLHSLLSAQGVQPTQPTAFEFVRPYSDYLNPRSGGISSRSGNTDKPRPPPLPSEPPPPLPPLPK
CDK7 CyclinH, sequence (P50613 whole entry): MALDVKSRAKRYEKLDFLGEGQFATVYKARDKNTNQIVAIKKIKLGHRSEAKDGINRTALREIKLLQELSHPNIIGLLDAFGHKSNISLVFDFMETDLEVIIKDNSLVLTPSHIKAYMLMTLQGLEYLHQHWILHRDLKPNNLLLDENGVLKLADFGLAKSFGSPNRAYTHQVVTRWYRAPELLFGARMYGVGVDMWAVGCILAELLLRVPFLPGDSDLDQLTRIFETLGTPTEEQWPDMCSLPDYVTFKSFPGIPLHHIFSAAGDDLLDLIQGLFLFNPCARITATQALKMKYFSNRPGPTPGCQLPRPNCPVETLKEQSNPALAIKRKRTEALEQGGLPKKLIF
CDK7 CyclinH, sequence (P51946 whole entry partner): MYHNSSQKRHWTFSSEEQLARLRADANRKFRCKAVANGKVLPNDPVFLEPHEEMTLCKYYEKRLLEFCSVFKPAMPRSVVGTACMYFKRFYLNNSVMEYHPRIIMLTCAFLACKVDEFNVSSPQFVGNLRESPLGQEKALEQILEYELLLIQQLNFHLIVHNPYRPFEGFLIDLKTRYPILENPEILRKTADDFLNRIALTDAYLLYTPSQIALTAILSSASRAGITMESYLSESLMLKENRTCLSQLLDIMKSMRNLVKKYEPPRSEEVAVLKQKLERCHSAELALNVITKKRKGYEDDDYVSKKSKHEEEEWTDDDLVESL
CDK7 CyclinH, sequence (P51948 whole entry partner): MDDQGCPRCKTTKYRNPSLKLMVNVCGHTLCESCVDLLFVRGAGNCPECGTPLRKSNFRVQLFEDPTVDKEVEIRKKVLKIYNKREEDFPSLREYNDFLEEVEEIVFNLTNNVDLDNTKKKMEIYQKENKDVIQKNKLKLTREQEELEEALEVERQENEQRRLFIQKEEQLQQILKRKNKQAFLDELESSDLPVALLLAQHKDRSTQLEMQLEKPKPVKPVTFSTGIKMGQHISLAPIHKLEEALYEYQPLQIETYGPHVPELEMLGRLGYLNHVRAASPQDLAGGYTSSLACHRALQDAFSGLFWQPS
Description for CDK4-CYCLIND1: Inhibition assays were performed using microfluidic LabChip 300 Drug Discovery System from Caliper Life Sciences. […] The assay has a total volume of 10 μL consisting of 5 μL of enzyme and buffer and 5 μL of substrate and buffer. The test compounds were diluted in 100% dimethylsulfoxide (DMSO) using 3-fold dilution steps. […] Compounds were tested in a single well for each dilution and the final concentration of DMSO was maintained at 1%.
The assay buffer contained 100 mM HEPES, pH 7.5, 0.01% Triton X-100, 0.1% bovine serum albumin (BSA), 5 mM MgCl2; 1 mM dithiothreitol (DTT), 10 μM sodium orthovanadate, and 10 μM β-glycerophosphate.
The assay was conducted by adding 5 μL of enzyme, adenosine triphosphate (ATP) and buffer to an assay plate. A 100 nL aliquot of the diluted compounds were added to the plate. The assay was initiated by the addition of 5 μL of phosphoenolpyruvate substrate (PEP) in buffer. […] The reaction was terminated by the addition of EDTA. The plates were analyzed using a Caliper LabChip 3000.
Additional inhibition assays were performed as described above.
The assays were conducted as described above for the racemates.

On to `CN1CCN(c2ccc(Nc3ncc4c(n3)N(C3CCCC3)C(=O)N([C@H]3CCNC3)C4)cc2)CC1` [Example D71, (S)-1-cyclopentyl-7-((4-(4-methylpiperazin-1-yl)phenyl)amino)-3-(pyrrolidin-3-yl)-3,4-dihydropyrimido[4,5-d]pyrimidin-2(1H)-one], for which the IC50 was over 10 µM against CDK1/B (Table 4a); over 10 µM on CDK2-CYCLINA (Table 4a); over 10 µM on CDK7 CyclinH (Table 4a); over 10 µM on CDK9-CYCLINT1 (Table 4a); 1.96 µM at CDK4-CYCLIND1 (CDK4 CyclinD1 IC50, Table 4a).

With `CN1CCN(c2ccc(Nc3ncc4c(n3)N(C3CCCC3)C(=O)N([C@@H]3CCNC3)C4)cc2)CC1` [Example D74, (R)-1-cyclopentyl-7-((4-(4-methylpiperazin-1-yl)phenyl)amino)-3-(pyrrolidin-3-yl)-3,4-dihydropyrimido[4,5-d]pyrimidin-2(1H)-one], the IC50 is over 10 µM on CDK1/B (Table 4a); over 10 µM on CDK2-CYCLINA (Table 4a); over 10 µM against CDK7 CyclinH (Table 4a); over 10 µM at CDK9-CYCLINT1 (Table 4a); 2.74 µM on CDK4-CYCLIND1 (CDK4 CyclinD1 IC50, Table 4a).

Consider `CN1CCN(c2ccc(Nc3ncc4c(n3)N(C3CCCC3)C(=O)N(c3ccccc3F)C4)cc2F)CC1` [Example D80, 1-cyclopentyl-7-((3-fluoro-4-(4-methylpiperazin-1-yl)phenyl)amino)-3-(2-fluorophenyl)-3,4-dihydropyrimido[4,5-d]pyrimidin-2(1H)-one], for which the IC50 is over 10 µM on CDK1/B (Table 4a); 7.59 µM on CDK2-CYCLINA (Table 4a); over 10 µM on CDK7 CyclinH (Table 4a); over 10 µM at CDK9-CYCLINT1 (Table 4a); 0.00343 µM at CDK4-CYCLIND1 (CDK4 CyclinD1 IC50, Table 4a).

Take `O=C1NCC[C@@]12Cc1cnc(N[C@H]3CC[C@H](NC4CCOCC4)CC3)nc1N(C1CCCC1)C2=O` [Example D92, (S)-8-cyclopentyl-2-(((1r,4S)-4-((tetrahydro-2H-pyran-4-yl)amino)cyclohexyl)amino)-5,8-dihydro-7H-spiro[pyrido[2,3-d]pyrimidine-6,3′-pyrrolidine]-2′,7-dione]: the IC50 at CDK1/B (Table 4a) is 0.219 µM; at CDK2-CYCLINA (Table 4a) it was 0.153 µM; against CDK7 CyclinH (Table 4a), 0.343 µM; on CDK9-CYCLINT1 (Table 4a) it was under 0.0032 µM; on CDK4-CYCLIND1 (CDK4 CyclinD1 IC50, Table 4a), 0.00556 µM.

`O=C1NCC[C@@]12Cc1cnc(N[C@H]3CC[C@H](NC4CCOCC4)CC3)nc1N(C13CC(C1)C3)C2=O` [Example D93, (S)-8-(bicyclo[1.1.1]pentan-1-yl)-2-(((1r,4S)-4-((tetrahydro-2H-pyran-4-yl)amino)cyclohexyl)amino)-5,8-dihydro-7H-spiro[pyrido[2,3-d]pyrimidine-6,3′-pyrrolidine]-2′,7-dione]: the IC50 is 1.1 µM against CDK1/B (Table 4a); 0.723 µM on CDK2-CYCLINA (Table 4a); 1.5 µM on CDK7 CyclinH (Table 4a); 0.0161 µM at CDK9-CYCLINT1 (Table 4a); 0.0333 µM on CDK4-CYCLIND1 (CDK4 CyclinD1 IC50, Table 4a).

With `O=C1NCC[C@@]12Cc1cnc(Nc3ccc(N4CCN(CCO)CC4)c(F)c3)nc1N(C1CCCC1)C2=O` [Example D97, (S)-8-cyclopentyl-2-((3-fluoro-4-(4-(2-hydroxyethyl)piperazin-1-yl)phenyl)amino)-5,8-dihydro-7H-spiro[pyrido[2,3-d]pyrimidine-6,3′-pyrrolidine]-2′,7-dione], the IC50 against CDK1/B (Table 4b, lower part) is 0.222 µM; on CDK2-CYCLINA (Table 4b, lower part) it was 0.0566 µM; against CDK7 CyclinH (Table 4b, lower part), 0.111 µM; on CDK9-CYCLINT1 (Table 4b, lower part), under 0.0032 µM; on CDK4-CYCLIND1 (setting [1]) it was under 0.0032 µM.

`CC(C)c1ccc(Nc2ncc3c(n2)N(C2CCCC2)C(=O)[C@]2(CCNC2=O)C3)cc1` [Example D115, (S)-8-cyclopentyl-2-((4-isopropylphenyl)amino)-5,8-dihydro-7H-spiro[pyrido[2,3-d]pyrimidine-6,3′-pyrrolidine]-2′,7-dione]: the IC50 against CDK1/B (Table 4b, lower part) was 0.563 µM; on CDK2-CYCLINA (Table 4b, lower part) it was 0.135 µM; on CDK7 CyclinH (Table 4b, lower part) it was over 10 µM; on CDK9-CYCLINT1 (Table 4b, lower part), 0.00903 µM.

`CC(C)N1CCC(Nc2ncc3c(n2)N(C2CCCC2)C(=O)[C@]2(CCNC2=O)C3)CC1` [Example D125, (S)-8-cyclopentyl-2-((1-isopropylpiperidin-4-yl)amino)-5,8-dihydro-7H-spiro[pyrido[2,3-d]pyrimidine-6,3′-pyrrolidine]-2′,7-dione]: the IC50 was found to be 1.16 µM against CDK1/B (Table 4b, lower part); 1.14 µM at CDK2-CYCLINA (Table 4b, lower part); 0.557 µM at CDK7 CyclinH (Table 4b, lower part); 0.0205 µM on CDK9-CYCLINT1 (Table 4b, lower part).

`CC(C)c1ccc(Nc2ncc3c(n2)N(C2CCCC2)C(=O)[C@]2(CCNC2=O)C3)cc1F` [Example D130, (S)-8-cyclopentyl-2-((3-fluoro-4-isopropylphenyl)amino)-5,8-dihydro-7H-spiro[pyrido[2,3-d]pyrimidine-6,3′-pyrrolidine]-2′,7-dione]: the IC50 on CDK1/B (Table 4b, lower part) is 1.06 µM; on CDK2-CYCLINA (Table 4b, lower part), 0.242 µM; at CDK7 CyclinH (Table 4b, lower part) it was over 10 µM; at CDK9-CYCLINT1 (Table 4b, lower part) it was 0.0123 µM.

For the compound `CN1CCN(c2ccc(Nc3ncc4c(n3)N(C35CC(C3)C5)C(=O)C3(CCNC3=O)C4)cc2F)CC1` (stereo not shown) [Example D183, 8-(bicyclo[1.1.1]pentan-1-yl)-2-((3-fluoro-4-(4-methylpiperazin-1-yl)phenyl)amino)-5,8-dihydro-7H-spiro[pyrido[2,3-d]pyrimidine-6,3′-pyrrolidine]-2′,7-dione], the IC50 at CDK2-CYCLINA (Table 4b, lower part) was determined as 2.43 µM; on CDK6-CYCLIND3 it was 0.0662 µM; on CDK7 CyclinH (Table 4b, lower part) it was 2.34 µM; at CDK9-CYCLINT1 (Table 4b, lower part), 0.0768 µM; at CDK4-CYCLIND1 (setting [1]) it was 0.0229 µM.

Turning to `O=C1NCC[C@@]12Cc1cnc(Nc3ccc(N4CCNCC4)c(F)c3)nc1N(C13CC(C1)C3)C2=O` [Example D184, (S)-8-(bicyclo[1.1.1]pentan-1-yl)-2-((3-fluoro-4-(piperazin-1-yl)phenyl)amino)-5,8-dihydro-7H-spiro[pyrido[2,3-d]pyrimidine-6,3′-pyrrolidine]-2′,7-dione], the IC50 is 1.4 µM on CDK2-CYCLINA (Table 4b, lower part); 0.0435 µM at CDK6-CYCLIND3; 1.69 µM against CDK7 CyclinH (Table 4b, lower part); 0.0468 µM at CDK9-CYCLINT1 (Table 4b, lower part); 0.0196 µM and 0.0111 µM on CDK4-CYCLIND1 (setting [1]).

As to `CN1CCN(c2ccc(Nc3ncc4c(n3)N(C35CC(C3)C5)C(=O)[C@]3(CCNC3=O)C4)cc2F)CC1` [Example D185, (S)-8-(bicyclo[1.1.1]pentan-1-yl)-2-((3-fluoro-4-(4-methylpiperazin-1-yl)phenyl)amino)-5,8-dihydro-7H-spiro[pyrido[2,3-d]pyrimidine-6,3′-pyrrolidine]-2′,7-dione], the IC50 at CDK2-CYCLINA (Table 4b, lower part) amounted to 1.06 µM; on CDK6-CYCLIND3, 0.0312 µM; against CDK7 CyclinH (Table 4b, lower part), 1.17 µM; on CDK9-CYCLINT1 (Table 4b, lower part), 0.0367 µM; at CDK4-CYCLIND1 (setting [1]), 0.0156 µM.

`CN1CCN(c2ccc(Nc3ncc4c(n3)N(C35CC(C3)C5)C(=O)[C@]3(CCNC3=O)C4)cc2)CC1` [Example D186, (S)-8-(bicyclo[1.1.1]pentan-1-yl)-2-((4-(4-methylpiperazin-1-yl)phenyl)amino)-5,8-dihydro-7H-spiro[pyrido[2,3-d]pyrimidine-6,3′-pyrrolidine]-2′,7-dione]: the IC50 at CDK2-CYCLINA (Table 4b, lower part) amounted to 1.49 µM; on CDK6-CYCLIND3 it was 0.0387 µM; on CDK7 CyclinH (Table 4b, lower part), 2.32 µM; on CDK9-CYCLINT1 (Table 4b, lower part) it was 0.0615 µM; on CDK4-CYCLIND1 (setting [1]), 0.0139 µM.

Regarding `CC(C)N1CCN(c2ccc(Nc3ncc4c(n3)N(C35CC(C3)C5)C(=O)[C@]3(CCNC3=O)C4)cc2)CC1` [Example D187, (S)-8-(bicyclo[1.1.1]pentan-1-yl)-2-((4-(4-isopropylpiperazin-1-yl)phenyl)amino)-5,8-dihydro-7H-spiro[pyrido[2,3-d]pyrimidine-6,3′-pyrrolidine]-2′,7-dione], the IC50 on CDK2-CYCLINA (Table 4b, lower part) is 1.37 µM; on CDK6-CYCLIND3, 0.0336 µM; against CDK7 CyclinH (Table 4b, lower part), 1.68 µM; at CDK9-CYCLINT1 (Table 4b, lower part), 0.0607 µM; at CDK4-CYCLIND1 (setting [1]), 0.0145 µM.

On to `CN1CCN(c2ccc(Nc3ncc4c(n3)N(C35CC(C3)C5)C(=O)[C@]3(CCNC3=O)C4)nc2)CC1` [Example D188, (S)-8-(bicyclo[1.1.1]pentan-1-yl)-2-((5-(4-methylpiperazin-1-yl)pyridin-2-yl)amino)-5,8-dihydro-7H-spiro[pyrido[2,3-d]pyrimidine-6,3′-pyrrolidine]-2′,7-dione], for which the IC50 at CDK2-CYCLINA (Table 4b, lower part) is over 100 µM; on CDK6-CYCLIND3, 21.7 µM; on CDK7 CyclinH (Table 4b, lower part), over 100 µM; on CDK9-CYCLINT1 (Table 4b, lower part), over 100 µM; on CDK4-CYCLIND1 (setting [1]), 10.6 µM.

`CC(C)N1CCN(c2ccc(Nc3ncc4c(n3)N(C35CC(C3)C5)C(=O)[C@]3(CCNC3=O)C4)nc2)CC1` [Example D189, (S)-8-(bicyclo[1.1.1]pentan-1-yl)-2-((5-(4-isopropylpiperazin-1-yl)pyridin-2-yl)amino)-5,8-dihydro-7H-spiro[pyrido[2,3-d]pyrimidine-6,3′-pyrrolidine]-2′,7-dione]: the IC50 on CDK2-CYCLINA (Table 4b, lower part) is over 100 µM; on CDK6-CYCLIND3, 41.6 µM; at CDK7 CyclinH (Table 4b, lower part) it was over 100 µM; at CDK9-CYCLINT1 (Table 4b, lower part), 17.7 µM; at CDK4-CYCLIND1 (setting [1]), 28.7 µM.

For the compound `CCN1CCN(Cc2ccc(Nc3ncc4c(n3)N(C35CC(C3)C5)C(=O)[C@]3(CCNC3=O)C4)nc2)CC1` [Example D190, (S)-8-(bicyclo[1.1.1]pentan-1-yl)-2-((5-((4-ethylpiperazin-1-yl)methyl)pyridin-2-yl)amino)-5,8-dihydro-7H-spiro[pyrido[2,3-d]pyrimidine-6,3′-pyrrolidine]-2′,7-dione], the IC50 on CDK2-CYCLINA (Table 4b, lower part) is over 100 µM; on CDK6-CYCLIND3, 34.2 µM; against CDK7 CyclinH (Table 4b, lower part) it was over 100 µM; on CDK9-CYCLINT1 (Table 4b, lower part) it was 21.8 µM; on CDK4-CYCLIND1 (setting [1]), 11.4 µM.
